Results as given in patent publication US20030118627A1 (DABUR RESEARCH FOUNDATION, priority 2001, published 2003).

Legend:
Format in all cases: cell-based
KB = experiment: MTT cytotoxicity assay, KB oral; conditions: Homo sapiens, 24 h, read-out: ED50 values of cytotoxicity
Method: (§1) Briefly, a […] MTT cytotoxicity assay was performed, which is based on the principle of uptake of MTT (3-(4,5-dimethylthiazol-2-yl)-2,5-diphenyl tetrazolium bromide), a tetrazolium salt, by the metabolically active cells where it is metabolized by active mitochondria into a blue colored formazan product that is read spectrophoto-metrically. MTT was dissolved in phosphate buffered saline with a pH of 7.4 to obtain an MTT concentration of 5 mg/ml; the resulting mixture was filtered through a 0.22 micron filter to sterilize and remove a small amount of insoluble residue. For each type of tumor cell, 20,000 to 50,000 cells were seeded in a 96-well culture plate and incubated with the combination in a CO2 incubator for 24 hours. […] The assay was terminated after 24 hours by adding 100 ug (20 ul) of MTT to each well, then incubating for additional one hour, and finally adding 50 ul of 10% SDS-0.01N HCl to each well to lyse the cells and dissolve formazan. After incubating for one hour, the plate was read spectrophotometrically at 540 nm and the percentage cytotoxicity calculated.

DU145 = experiment: MTT cytotoxicity assay, DU145 prostate; conditions: Homo sapiens
Method: as §1

MCF7 = experiment: MTT cytotoxicity assay, MCF7 breast; conditions: Homo sapiens
Method: as §1

PTC = experiment: MTT cytotoxicity assay, PTC colon; conditions: Homo sapiens
Method: as §1

INT 407 = experiment: MTT cytotoxicity assay, INT 407 intestine; conditions: Homo sapiens, 24 h, read-out: ED50 values of cytotoxicity
Method: as §1

PA 1 = experiment: MTT cytotoxicity assay, PA 1 ovary; conditions: Homo sapiens
Method: as §1

Hep2 = experiment: MTT cytotoxicity assay, Hep2 larynx; conditions: Homo sapiens, HEp-2, 24 h, read-out: ED50 values of cytotoxicity
Method: as §1

U87MG = experiment: MTT cytotoxicity assay, U87MG glioblastoma; conditions: Homo sapiens, U-87 MG, 24 h, read-out: ED50 values of cytotoxicity
Method: as §1

MOLT 4 = experiment: MTT cytotoxicity assay, MOLT 4 leukemia; conditions: Homo sapiens
Method: as §1

Miapaca2 = experiment: MTT cytotoxicity assay, Miapaca2 pancreas; conditions: Homo sapiens
Method: as §1

L132 = experiment: MTT cytotoxicity assay, L132 lung; conditions: Homo sapiens
Method: as §1

293 = experiment: MTT cytotoxicity assay, 293 kidney; conditions: Homo sapiens, HEK293, 24 h, read-out: ED50 values of cytotoxicity
Method: as §1

[1] = 1.0 mM, read-out: Percent cytotoxicity
[2] = 2.5 mM, read-out: Percent cytotoxicity
[3] = 4 mM, read-out: Percent cytotoxicity
[4] = 5 mM, read-out: Percent cytotoxicity
[5] = 10 mM, read-out: Percent cytotoxicity
[6] = 24 h, read-out: ED50 values of cytotoxicity

## CC(=O)C(O)N1C(=O)CCC1C(=O)OCc1ccccc1 (centres unmarked) [MGC-3, N-(1-hydroxy-2-ketopropyl)-benzylpyroglutamate]
KB
  IC50: 2550 ± 400 µM
DU145; DU-145, 1.0 mM, read-out: Percent cytotoxicity
  cytotoxicity at 1000 µM: 29.4 ± 4.2%
DU145; DU-145, 2.5 mM, read-out: Percent cytotoxicity
  cytotoxicity at 2500 µM: 56.9 ± 4.3%
DU145; DU-145, 4 mM, read-out: Percent cytotoxicity
  cytotoxicity at 4000 µM: 64.8 ± 6.3%
DU145; DU-145, 5 mM, read-out: Percent cytotoxicity
  cytotoxicity at 5000 µM: 87.9 ± 8.3%
DU145; DU-145, 10 mM, read-out: Percent cytotoxicity
  cytotoxicity at 10000 µM: 88.4 ± 4%
DU145; DU-145, 24 h, read-out: ED50 values of cytotoxicity
  IC50: 1800 ± 200 µM
MCF7; MCF7, 24 h, MCF 7 Breast, read-out: ED50 values of cytotoxicity
  IC50: > 5000 µM
MCF7; MCF7 breast, 1.0 mM, read-out: Percent cytotoxicity
  cytotoxicity at 1000 µM: 0%
MCF7; MCF7 breast, 2.5 mM, read-out: Percent cytotoxicity
  cytotoxicity at 2500 µM: 0%
MCF7; MCF7 breast, 4 mM, read-out: Percent cytotoxicity
  cytotoxicity at 4000 µM: 0%
MCF7; MCF7 breast, 5 mM, read-out: Percent cytotoxicity
  cytotoxicity at 5000 µM: 2.7 ± 0.1%
MCF7; MCF7 breast, 10 mM, read-out: Percent cytotoxicity
  cytotoxicity at 10000 µM: 12.4 ± 1%
PTC; [1]
  cytotoxicity at 1000 µM: 0%
PTC; [2]
  cytotoxicity at 2500 µM: 32.9 ± 3.8%
PTC; [3]
  cytotoxicity at 4000 µM: 54.9 ± 3.8%
PTC; [4]
  cytotoxicity at 5000 µM: 56.8 ± 5.7%
PTC; [5]
  cytotoxicity at 10000 µM: 86.9 ± 7.6%
PTC; [6]
  IC50: 3800 ± 700 µM
INT 407
  IC50: 2850 ± 700 µM
PA 1; 24 h, PA 1 Ovarian, read-out: ED50 values of cytotoxicity
  IC50: 1800 ± 600 µM
PA 1; PA 1 Ovary, 1.0 mM, read-out: Percent cytotoxicity
  cytotoxicity at 1000 µM: 42.8 ± 4.9%
PA 1; PA 1 Ovary, 2.5 mM, read-out: Percent cytotoxicity
  cytotoxicity at 2500 µM: 64.8 ± 5.9%
PA 1; PA 1 Ovary, 4 mM, read-out: Percent cytotoxicity
  cytotoxicity at 4000 µM: 66.9 ± 5.9%
PA 1; PA 1 Ovary, 5 mM, read-out: Percent cytotoxicity
  cytotoxicity at 5000 µM: 78.9 ± 7.4%
PA 1; PA 1 Ovary, 10 mM, read-out: Percent cytotoxicity
  cytotoxicity at 10000 µM: 88.5 ± 8.4%
Hep2
  IC50: 2600 µM
U87MG
  IC50: > 5000 µM
MOLT 4; 24 h, Molt 4 Leukemia, read-out: ED50 values of cytotoxicity
  IC50: 1650 ± 500 µM
MOLT 4; MOLT 4 Leukemia, 1.0 mM, read-out: Percent cytotoxicity
  cytotoxicity at 1000 µM: 42.1 ± 4.3%
MOLT 4; MOLT 4 Leukemia, 2.5 mM, read-out: Percent cytotoxicity
  cytotoxicity at 2500 µM: 54.9 ± 4.3%
MOLT 4; MOLT 4 Leukemia, 4 mM, read-out: Percent cytotoxicity
  cytotoxicity at 4000 µM: 65.9 ± 4.3%
MOLT 4; MOLT 4 Leukemia, 5 mM, read-out: Percent cytotoxicity
  cytotoxicity at 5000 µM: 87.9 ± 7.3%
MOLT 4; MOLT 4 Leukemia, 10 mM, read-out: Percent cytotoxicity
  cytotoxicity at 10000 µM: 88.3 ± 7.4%
Miapaca2; MIA PaCa-2, 1.0 mM, read-out: Percent cytotoxicity
  cytotoxicity at 1000 µM: 0%
Miapaca2; MIA PaCa-2, 2.5 mM, read-out: Percent cytotoxicity
  cytotoxicity at 2500 µM: 0%
Miapaca2; MIA PaCa-2, 4 mM, read-out: Percent cytotoxicity
  cytotoxicity at 4000 µM: 0%
Miapaca2; MIA PaCa-2, 5 mM, read-out: Percent cytotoxicity
  cytotoxicity at 5000 µM: 12.9 ± 1%
Miapaca2; MIA PaCa-2, 10 mM, read-out: Percent cytotoxicity
  cytotoxicity at 10000 µM: 14.1 ± 1.9%
Miapaca2; MIA PaCa-2, 24 h, read-out: ED50 values of cytotoxicity
  IC50: > 5000 µM
L132; [1]
  cytotoxicity at 1000 µM: 0%
L132; [2]
  cytotoxicity at 2500 µM: 30 ± 2.9%
L132; [3]
  cytotoxicity at 4000 µM: 45.8 ± 4.5%
L132; [4]
  cytotoxicity at 5000 µM: 52.9 ± 5.2%
L132; [5]
  cytotoxicity at 10000 µM: 79.4 ± 5.9%
L132; [6]
  IC50: 4600 ± 1600 µM
293
  IC50: 2000 ± 300 µM
